Measured values published in US10774115B2, “Modified Fab region-binding peptide” (Kaneka Corporation, priority 2015, dated 2020).

Columns and labels:
[1] = system: aTNF-Fab; experiment: Affinity of modified SpG-β1# for aTNF-Fab by surface plasmon resonance (Biacore 3000); details: aTNF-Fab immobilized on CM5 sensor tip, 25° C., pH 7.4, 1:1 binding model
Procedure: A humanized monoclonal IgG product as a raw material was fragmented into a Fab fragment and a Fc fragment using papain, and only the Fab fragment was separated and purified. Specifically, anti-human TNFα monoclonal IgG (generic name: “Infliximab”, product name: “Remicade” manufactured by Mitsubishi Tanabe Pharma Corporation) was dissolved in a buffer for papain treatment (0.1 M AcOH—AcONa, 2 mM EDTA, 1 mM cysteine, pH 5.5), and agarose on which papain was immobilized (“Papain Agarose from papaya latex” manufactured by SIGMA) was added thereto. The mixture was incubated with stirring by a rotator at 37° C. for about 8 hours. The IgG-Fab was purified by recovering as a flow-through fraction in an affinity chromatography using MabSelect SuRe column (GE Healthcare Bioscience) from the reaction mixture which contained both of a Fab fragment and a Fc fragment and which was separated from the agarose on which papain was immobilized. The obtained IgG-Fab solution was subjected to purification by gel filtration chromatography using Superdex 75 10/300 GL column to obtain the solution of IgG-Fab (aTNF-Fab). In the chromatography, the standard buffer was used for equilibration and separation. Similarly to the above-described Example 1, AKTAprime plus system was used in the chromatography for peptide purification.
The affinity of each various modified SpG-β1# obtained in the above Example 1(2) for aTNF-Fab was evaluated using a biosensor Biacore 3000 (GE Healthcare Bioscience) utilizing surface plasmon resonance. In the present Example, the aTNF-Fab obtained in the above Example 2(1) was immobilized on a sensor tip, and each of the peptide was flown on the tip to detect the interaction between the two. The aTNF-Fab was immobilized on a sensor tip CM5 by amine coupling method using N-hydroxysuccinimide (NHS) and N-ethyl-N′-(3-dimethylaminopropyl)carbodiimide hydrochloride (EDC), and ethanolamine was used for blocking. All of the sensor tip and reagents for immobilization were manufactured by GE Healthcare Bioscience. The aTNF-Fab solution was diluted about 10 times using a buffer for immobilization (10 mM AcOH—AcONa, pH 4.5), and the aTNF-Fab was immobilized on the sensor tip in accordance with the protocol attached to the Biacore 3000. In addition, a reference cell as negative control was also prepared by activating another flow cell on the tip with EDC/NHS, immobilizing nothing and blocking with ethanolamine. Peptide solutions of each various modified SpG-β1# having concentrations of 0.01, 0.1, 1 or 10 μM were prepared using a running buffer (20 mM NaH2PO4—Na2HPO4, 150 mM NaCl, 0.005% P-20, pH 7.4). The peptide solution was added to the sensor tip in a flow rate of 40 μL/min for 1 minute. Bonding response curves at the time of addition (association phase, for 1 minute) and after the addition (dissociation phase, for 1 minute) were sequentially obtained at a measurement temperature of 25° C. After each measurement, the cells were washed using about 20 mM NaOH. The bonding response curve obtained by subtracting the bonding response curve of the reference cell was subjected to fitting analysis by a binding model of 1:1 using a software BIA evaluation attached to the system, and affinity constant (KA=kon/koff) to aTNF-Fab was calculated. The result is shown in Table 2 with each binding parameter of GB1#-Cont.1d, which parameter was measured in Comparative Example 2.
An affinity of GB1#-Cont.1d prepared in Comparative example 1 for aTNF-Fab prepared in Example 2(1) was evaluated similarly to the procedure of Example 2(2).

[2] = system: aTNF-Fab; experiment: Acid dissociation pH by pH linear gradient chromatography on aTNF-Fab-immobilized column; type: binding; details: for Dissociation pH (pH at elution peak top): pH linear gradient from pH 5.5 to pH 2.5; for elution position in pH gradient compared with peptide without mutation: Table 3 and FIG. 2
Procedure: An affinity separation matrix on which aTNF-Fab obtained in the above Example 2 was immobilized was prepared by using a commercially available coupling column for immobilizing a ligand. The column has an amino group as a functional group for coupling.
As a water-insoluble carrier, 1 mL of a commercially available prepacked column (“Hitrap NHS activated HP” manufactured by GE Healthcare Bioscience) was used. The column contains a crosslinked agarose as a base material and an amino group is introduced as an active functional group for immobilizing a protein ligand, and a ligand was immobilized in accordance with the product manual. Specifically, 2 mL of ice-cooled 1 mM HCl was flown at a rate of 1 mL/min repeatedly three times to remove isopropanol in the column.
Then, 1 mL of a 1 mg/mL aTNF-Fab solution in a coupling buffer (0.2 MNaHCO3, 0.5 MNaCl, pH 8.3) was immediately flown at the same rate. The top and bottom of the column were stoppled, and the column was stood still at 25° C. for 30 minutes to immobilize the obtained ligand on the column.
Then, the column was opened, and 3 mL of the coupling buffer was flown at the same rate to recover the unreacted aTNF-Fab. Next, 2 mL of a blocking buffer (0.5 M ethanolamine, 0.5 M NaCl, pH 8.3) was flown repeatedly three times and 2 mL of a washing buffer (0.1 M acetic acid, 0.5 M NaCl, pH 4.0) was flown three times. Each of the above-described procedure to flow the blocking buffer and washing buffer were performed three times one after the other. Finally, 2 mL of a standard buffer (20 mM NaH2PO4—Na2HPO4, 150 mM NaCl, pH 7.4) was flown to complete the preparation of an affinity separation matrix.
By affinity purification chromatography using aTNF-Fab-immobilized column prepared in Example 3(1), an acid dissociation pH at which each modified SpG-β1# prepared in Example 1 (2) was eluted and which corresponded to the peak top of an elution curve of the modified SpG-β1# was measured. Specifically, AKTAprime plus system was used as a chromatography system. The column was equilibrated using ion exchange buffer A (50 mM citric acid-citrate Na, pH 5.5). Into the column, 0.1 mL of a protein solution containing each modified SpG-β1# in the concentration of about 0.1 mg/mL was added, and the protein was eluted with the pH linear gradient from pH 5.5 to pH 2.5. More specifically, the ion exchange buffer A and ion exchange buffer B (50 mM AcOH—AcONa, 1 M NaCl, pH 2.5) were used. […] The pH value which was specified in the experiment as the value corresponding to each elution peak top is shown in Table 3 in addition to the result of Comparative example 3.
An acid dissociation pH of GB1#-Cont.1d prepared in Comparative example 1 was measured using aTNF-Fab-immobilized carrier prepared in Example 3(1) similarly to the procedure of Example 3(2).

Substance	KA (affinity constant, KA=kon/koff) [1]	koff [1]	kon [1]	Dissociation pH (pH at elution peak top) [2]	elution position in pH gradient compared with peptide without mutation [2]
GB1#-Cont.1d: modified SpG-β1 of SEQ ID NO: 1 with improved binding capability to Fab; peptide before substitution mutation, Comparative example (TTYKLILNGKTLTGYTTAIAADAATAEIVLKQFANDNGIDGEWTYDDATKTFTVTE; Immunoglobulin-binding peptide) [reference compound]	2.45 ×10^6 [M^−1]	1.70 ×10^−2 [s^−1]	4.17 ×10^4 [M^−1s]	2.60	
GB1#-D36V.1d: modified SpG-β1# single domain with mutation D36V; amino acid SEQ ID NO: 19 (TTYKLILNGKTLTGYTTAIAADAATAEIVLKQFANVNGIDGEWTYDDATKTFTVTE; GB1#-mutant)	0.51 ×10^6 [M^−1]	6.40 ×10^−2 [s^−1]	3.28 ×10^4 [M^−1s]	3.40	eluted earlier than GB1#-Cont.1d
GB1#-T17A.1d: modified SpG-β1# single domain, SEQ ID NO: 1 with Thr at 17th position substituted by Ala; amino acid SEQ ID NO: 17 (TTYKLILNGKTLTGYTAAIAADAATAEIVLKQFANDNGIDGEWTYDDATKTFTVTE; GB1#-mutant)	0.88 ×10^6 [M^−1]	2.85 ×10^−2 [s^−1]	2.50 ×10^4 [M^−1s]	2.85	eluted earlier than GB1#-Cont.1d
GB1#-T17V.1d: modified SpG-β1# single domain with mutation T17V; amino acid SEQ ID NO: 18 (TTYKLILNGKTLTGYTVAIAADAATAEIVLKQFANDNGIDGEWTYDDATKTFTVTE; GB1#-mutant)	0.57 ×10^6 [M^−1]	3.35 ×10^−2 [s^−1]	1.91 ×10^4 [M^−1s]	3.00	eluted earlier than GB1#-Cont.1d
